Legend:
[1] = molecular target: T1, HSD17B13 enzyme (Homo sapiens (Human), UniProt Q7Z5P4); assay: Estrone detection assay (LC/MS, conversion of estradiol to estrone) for HSD17B13 activity; assay type: biochemical; details: substrate 4 µM estradiol, 6 mM NAD+, 30 nM enzyme
Procedure: The liquid chromatography/mass spectrometry (LC/MS) estrone detection assay monitors the conversion of estradiol to estrone by HSD17B13. This assay was undertaken in a 96wp format (Eppendorf deep well Plate 96/500) in an 80 µl reaction volume containing: 4 µM of Estradiol (E2; Cayman; #10006315), 6 mM NAD^+ (Sigma; #N0623) and 30 nM HSD17B13 enzyme (in-house; E. coli expressed His-tagged, purified, soluble protein) in a reaction containing 1 M potassium phosphate buffer pH 7.4, with 0.5% vehicle (DMSO). Reactions were incubated for 2 hours at 26.5° C., and estradiol (E2) conversion to estrone (E1) was quantitated by LC-MS/MS based analyte detection for both E2 and E1 using LCMS grade reagents.
Reactions were terminated by the addition of two volumes of acetonitrile (MeCN; LCMS grade; CAS# 75/05/8) containing deuterated (D4)-E1 used as internal standard (Clear Synth; #CS-T-54273; 500 ng/mL final concentration). Samples were applied to pre-prepared Bond Elut-C18 extraction cartridges (3 mL; Agilent; #12102028), washed and eluted in MeCN. Eluates were dried under nitrogen and re-suspended in 60% methanol (LCMS grade methanol; CAS# 67/56/1) before submission for analysis. Aqueous linearity for E2 and E1 were included for quantification.
Analysis of samples was undertaken on a XBridge BEH C18 column (Waters; #186003033) using 0.1% Diethyl Amine in MeCN (mobile phase A; DEA CAS# 109-89-7) and 0.1% Diethyl Amine in milli-Q water (mobile phase B) in a 3 min gradient allowing 25%B. Analytes were detected in negative mode using MRM analysis, with E2 having a RT of 1.85 min and E1 having a RT of 2 min. Activity of the enzyme, in the absence of NAD^+, was used to evaluate specificity of conversion. Enzyme activity in the presence of test samples was expressed as a percentage of the uninhibited enzyme activity, and plotted versus inhibitor concentration. Non-linear regression was performed using a four-parameter logistic model and GraphPad Prism software (GraphPad Software, La Jolla, CA). All assessments were undertaken in duplicate evaluations and pooled during extraction process and subsequently injected as duplicates for LC-MS/MS analysis.

[2] = molecular target: T1, HSD17B13 enzyme; assay: NADH detection assay (fluorescence based LTB3 assay) for HSD17B13 activity; assay type: biochemical; details: substrate 25 µM LTB3, 3 mM NAD+, 125 nM enzyme
Procedure: The fluorescence based Leukotriene B3 (LTB3) assay monitors the fluorescence of NADH, which is generated from NAD+ during the dehydrogenation of the substrate LTB3. The reactions were performed in a 384-well plates (Greiner; #655076) in a 20 µl reaction volume containing the following reagents (final concentrations): 25 µM LTB3 (Cayman; #20109); 3 mM NAD^+ (Sigma; #N0623); 125 nM HSD17B13 enzyme (in-house; E. coli expressed His-tagged, purified, soluble protein); 1 M potassium phosphate buffer, pH 7.4; and 1% DMSO. Reactions were initiated by co-addition of NAD+ and enzyme, and monitored for 1 hour at 26.5° C. Generation of NADH was measured as the fluorescence signal (Excitation at 340 nm and Emission at 445 nm) at 1 hour minus the baseline fluorescence at t=0. Fluorescence signals in the absence of LTB3 (negative control values), were subtracted from all values so that the results reflected substrate-dependent production of NADH. NADH standards were included to allow the conversion of relative fluorescence units into rates of enzyme activity. Enzyme activity in the presence of test compounds was expressed as a percentage of the uninhibited enzyme activity, and plotted versus inhibitor concentration. Non-linear regression was performed using a four-parameter logistic model and Microsoft Excel Solver software Ten concentrations of inhibitor were tested in duplicate (in the range of 30 µM - 2.5 nM), and two independent concentration response assays were performed.

T1 sequence (Q7Z5P4 20-300): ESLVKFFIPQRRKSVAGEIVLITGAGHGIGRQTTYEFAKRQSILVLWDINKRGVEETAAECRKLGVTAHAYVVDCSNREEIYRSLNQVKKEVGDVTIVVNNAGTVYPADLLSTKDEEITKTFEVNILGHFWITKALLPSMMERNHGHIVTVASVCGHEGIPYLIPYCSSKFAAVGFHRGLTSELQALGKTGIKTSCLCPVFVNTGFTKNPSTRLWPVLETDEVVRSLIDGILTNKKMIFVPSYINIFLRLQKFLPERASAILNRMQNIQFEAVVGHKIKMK

IC50 [1]	IC50 [2]	SMILES
> 10 µM	> 10 µM	COc1ccccc1CCn1cnc2cccc(NC(=O)c3ccnc(C(F)(F)F)c3)c2c1=O [Example 7, N-(3-(2-methoxyphenethyl)-4-oxo-3,4-dihydroquinazolin-5-yl)-2-(trifluoromethyl)isonicotinamide]
0.1 to 1 µM	> 10 µM	O=C(Nc1cccc2ncn(-c3ccccc3)c(=O)c12)c1ccc(O)c(Cl)c1 [Example 8, 3-chloro-4-hydroxy-N-(4-oxo-3-phenyl-3,4-dihydroquinazolin-5-yl)benzamide]
0.1 to 1 µM	> 10 µM	O=C(Nc1cccc2ncn(-c3cccnc3)c(=O)c12)c1ccc(O)c(Cl)c1 [Example 9, 3-chloro-4-hydroxy-N-(4-oxo-3-(pyridin-3-yl)-3,4-dihydroquinazolin-5-yl)benzamide]
≤ 0.1 µM	≤ 1 µM	CC(C)(C)CCn1cnc2cccc(NC(=O)c3ccc(O)c(Cl)c3)c2c1=O [Example 10, 3-chloro-N-(3-(3,3-dimethylbutyl)-4-oxo-3,4-dihydroquinazolin-5-yl)-4-hydroxybenzamide]
0.1 to 1 µM	1 to 5 µM	Cn1c(-c2cccnc2)nc2cccc(NC(=O)c3ccc(O)c(Cl)c3)c2c1=O [Example 11, 3-chloro-4-hydroxy-N-(3-methyl-4-oxo-2-(pyridin-3-yl)-3,4-dihydroquinazolin-5-yl)benzamide]
1 to 10 µM	1 to 5 µM	O=C(Nc1cccc2ncn(CC3CC3)c(=O)c12)c1ccc(S(=O)(=O)NC(=O)c2ccccc2)c(Cl)c1 [Example 14, 4-(N-benzoylsulfamoyl)-3-chloro-N-(3-(cyclopropylmethyl)-4-oxo-3,4-dihydroquinazolin-5-yl)benzamide]
1 to 10 µM	> 10 µM	CC(C)(C)CCn1cnc2cccc(NC(=O)c3cc(Cl)c(O)nn3)c2c1=O [Example 15, 5-chloro-N-(3-(3,3-dimethylbutyl)-4-oxo-3,4-dihydroquinazolin-5-yl)-6-hydroxypyridazine-3-carboxamide]
1 to 10 µM	5 to 10 µM	CC(C)(C)CCn1cnc2cccc(NC(=O)c3ccc(S(=O)(=O)NC(=O)c4cccnc4)c(Cl)c3)c2c1=O [Example 16, N-((2-chloro-4-((3-(3,3-dimethylbutyl)-4-oxo-3,4-dihydroquinazolin-5-yl)carbamoyl)phenyl)sulfonyl)nicotinamide]
> 10 µM	> 10 µM	Cn1c(-c2cccnc2)nc2cccc(NC(=O)c3ccc(-c4nnn[nH]4)c(F)c3)c2c1=O [Example 17, 3-fluoro-N-(3-methyl-4-oxo-2-(pyridin-3-yl)-3,4-dihydroquinazolin-5-yl)-4-(1H-tetrazol-5-yl)benzamide]
1 to 10 µM	> 10 µM	CC(C)(C)CCn1cnc2cccc(NC(=O)c3ccc(S(=O)(=O)NC(=O)c4ccccc4)c(Cl)c3)c2c1=O [Example 18, 4-(N-benzoylsulfamoyl)-3-chloro-N-(3-(3,3-dimethylbutyl)-4-oxo-3,4-dihydroquinazolin-5-yl)benzamide]
> 10 µM	1 to 5 µM	COc1ccccc1CCn1cnc2cccc(NC(=O)c3cc(Cl)c4[nH]c(=O)[nH]c4c3)c2c1=O [Example 19, 7-chloro-N-(3-(2-methoxyphenethyl)-4-oxo-3,4-dihydroquinazolin-5-yl)-2-oxo-2,3-dihydro-1H-benzo[d]imidazole-5-carboxamide]
0.1 to 1 µM	> 10 µM	O=C(Nc1cccc2ncn(Cc3ccncc3)c(=O)c12)c1ccc(O)c(F)c1 [Example 20, 3-fluoro-4-hydroxy-N-(4-oxo-3-(pyridin-4-ylmethyl)-3,4-dihydroquinazolin-5-yl)benzamide]
> 10 µM	> 10 µM	COc1ccccc1CCn1cnc2cccc(NC(=O)c3ccc(-c4cn[nH]c4)c(F)c3)c2c1=O [Example 21, 3-fluoro-N-(3-(2-methoxyphenethyl)-4-oxo-3,4-dihydroquinazolin-5-yl)-4-(1H-pyrazol-4-yl)benzamide]
> 10 µM	1 to 5 µM	COc1ccccc1CCn1cnc2cccc(NC(=O)c3ccc(-c4cc[nH]n4)c(F)c3)c2c1=O [Example 22, 3-fluoro-N-(3-(2-methoxyphenethyl)-4-oxo-3,4-dihydroquinazolin-5-yl)-4-(1H-pyrazol-3-yl)benzamide]
> 10 µM	> 10 µM	COc1ccccc1CCn1cnc2cccc(NC(=O)c3ccc(P(=O)(O)O)c(F)c3)c2c1=O [Example 23, (2-fluoro-4-((3-(2-methoxyphenethyl)-4-oxo-3,4-dihydroquinazolin-5-yl)carbamoyl)phenyl)phosphonic acid]
> 10 µM	> 10 µM	COc1ccccc1CCn1cnc2cccc(NC(=O)c3cc(Cl)c(O)c(C(C)C)c3)c2c1=O [Example 24, 3-chloro-4-hydroxy-5-isopropyl-N-(3-(2-methoxyphenethyl)-4-oxo-3,4-dihydroquinazolin-5-yl)benzamide]
1 to 10 µM	> 10 µM	COc1ccccc1CCn1cnc2cccc(NC(=O)c3ccc(CC(=O)O)c(F)c3)c2c1=O [Example 25, 2-(2-fluoro-4-((3-(2-methoxyphenethyl)-4-oxo-3,4-dihydroquinazolin-5-yl)carbamoyl)phenyl)acetic acid]
1 to 10 µM	> 10 µM	COc1ccccc1CCn1cnc2cccc(NC(=O)c3ccc(-c4cnn[nH]4)c(F)c3)c2c1=O [Example 26, 3-fluoro-N-(3-(2-methoxyphenethyl)-4-oxo-3,4-dihydroquinazolin-5-yl)-4-(1H-1,2,3-triazol-5-yl)benzamide]
1 to 10 µM	1 to 5 µM	COc1ccccc1CCn1cnc2cccc(NC(=O)c3ccc(-c4nnn[nH]4)c(Cl)c3)c2c1=O [Example 27, 3-chloro-N-(3-(2-methoxyphenethyl)-4-oxo-3,4-dihydroquinazolin-5-yl)-4-(1H-tetrazol-5-yl)benzamide]
0.1 to 1 µM	5 to 10 µM	COc1ccccc1CCn1cnc2c(c(NC(=O)c3ccc(O)c(F)c3)nn2C)c1=O [Example 28, 3-fluoro-4-hydroxy-N-(5-(2-methoxyphenethyl)-1-methyl-4-oxo-4,5-dihydro-1H-pyrazolo[3,4-d]pyrimidin-3-yl)benzamide]
> 10 µM	> 10 µM	COc1ccccc1CCn1cnc2cccc(NC(=O)c3ccc(S(N)(=O)=O)c(Cl)c3)c2c1=O [Example 29, 3-chloro-N-(3-(2-methoxyphenethyl)-4-oxo-3,4-dihydroquinazolin-5-yl)-4-sulfamoylbenzamide]
≤ 0.1 µM	≤ 1 µM	O=C(Nc1cccc2ncn(Cc3cccnc3)c(=O)c12)c1ccc(O)c(Cl)c1 [Example 30, 3-chloro-4-hydroxy-N-(4-oxo-3-(pyridin-3-ylmethyl)-3,4-dihydroquinazolin-5-yl)benzamide]
> 10 µM	> 10 µM	COc1ccccc1CCn1cnc2cccc(NC(=O)c3ccc(O)c(C(C)(C)C)c3)c2c1=O [Example 31, 3-(tert-butyl)-4-hydroxy-N-(3-(2-methoxyphenethyl)-4-oxo-3,4-dihydroquinazolin-5-yl)benzamide]
≤ 0.1 µM	≤ 1 µM	COc1ccccc1CCn1cnc2cccc(NC(=O)c3ccc(O)c(C(F)(F)F)c3)c2c1=O [Example 32, 4-hydroxy-N-(3-(2-methoxyphenethyl)-4-oxo-3,4-dihydroquinazolin-5-yl)-3-(trifluoromethyl)benzamide]
